Measurements as given in patent US8772298B2, “Spirocyclic heterocycles medicaments containing said compounds, use thereof and method for their production” (Boehringer Ingelheim International GmbH, priority 2008, dated 2014).

Molecular target: T1, human EGF-R (Homo sapiens, UniProt P00533)
T1 construct: expressed in transfected cells
Test: Inhibition of EGFR-dependent proliferation (EGF-stimulated murine haematopoietic cell line expressing human EGF-R)
Format: cell-based
Conditions: 20 ng/ml human EGF, 48 hours at 37° C., Cell Titer 96 AQueous assay
Experimental: A murine haematopoietic cell line is genetically modified so as to express functional human EGF-R. The proliferation of this cell line can therefore be stimulated by EGF.
The test is carried out as follows:
The cells are cultivated in RPMI/1640 medium. The proliferation is stimulated with 20 ng/ml of human EGF (Promega). To investigate the inhibitory activity of the compounds according to the invention these compounds are dissolved in 100% dimethylsulphoxide (DMSO) and added to the cultures in various dilutions, the maximum DMSO concentration being 1%. The cultures are incubated for 48 hours at 37° C.
In order to determine the inhibitory activity of the compounds according to the invention the relative cell number is measured in O.D. Units using the Cell Titer 96™ AQueous Non-Radioactive Cell Proliferation Assay (Promega). The relative cell number is calculated as a percentage of the control and the concentration of active substance which inhibits the proliferation of the cells by 50% (IC50) is derived therefrom.

T1 sequence (P00533 25-1210): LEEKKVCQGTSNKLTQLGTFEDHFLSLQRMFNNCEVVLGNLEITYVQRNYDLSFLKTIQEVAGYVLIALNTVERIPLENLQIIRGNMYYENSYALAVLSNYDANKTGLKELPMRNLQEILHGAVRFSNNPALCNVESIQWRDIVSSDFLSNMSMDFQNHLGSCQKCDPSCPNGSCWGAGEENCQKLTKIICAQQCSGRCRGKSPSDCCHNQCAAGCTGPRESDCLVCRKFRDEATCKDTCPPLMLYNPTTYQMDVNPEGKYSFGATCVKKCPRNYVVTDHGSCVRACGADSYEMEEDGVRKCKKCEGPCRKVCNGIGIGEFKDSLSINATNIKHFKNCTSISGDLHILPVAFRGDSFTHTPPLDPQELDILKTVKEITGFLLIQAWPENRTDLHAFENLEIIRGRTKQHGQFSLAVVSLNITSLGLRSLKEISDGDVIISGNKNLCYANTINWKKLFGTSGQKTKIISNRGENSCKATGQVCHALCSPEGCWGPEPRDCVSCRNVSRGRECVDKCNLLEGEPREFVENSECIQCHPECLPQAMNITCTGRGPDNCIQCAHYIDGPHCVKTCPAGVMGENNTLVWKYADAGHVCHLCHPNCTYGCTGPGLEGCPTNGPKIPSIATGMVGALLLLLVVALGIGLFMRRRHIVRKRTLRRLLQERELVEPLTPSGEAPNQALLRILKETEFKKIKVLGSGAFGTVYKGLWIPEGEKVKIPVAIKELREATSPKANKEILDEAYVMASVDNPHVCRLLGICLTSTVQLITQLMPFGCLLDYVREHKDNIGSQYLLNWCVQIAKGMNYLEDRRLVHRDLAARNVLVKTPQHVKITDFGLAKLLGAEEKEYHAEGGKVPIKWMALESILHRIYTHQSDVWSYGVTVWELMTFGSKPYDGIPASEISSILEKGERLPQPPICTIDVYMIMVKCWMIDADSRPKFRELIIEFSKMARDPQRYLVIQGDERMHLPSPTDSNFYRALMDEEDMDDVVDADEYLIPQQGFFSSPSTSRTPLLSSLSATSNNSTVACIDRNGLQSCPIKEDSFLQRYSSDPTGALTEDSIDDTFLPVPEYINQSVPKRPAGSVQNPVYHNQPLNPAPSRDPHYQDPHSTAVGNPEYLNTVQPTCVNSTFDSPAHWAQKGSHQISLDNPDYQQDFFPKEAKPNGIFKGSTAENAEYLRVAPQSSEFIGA

Point of comparison: `COc1cc2ncnc(Nc3cccc(Cl)c3F)c2cc1O[C@H]1CC[C@@]2(CC1)NCCN(C)C2=O` [1(1), anti-9-[4-(3-chloro-2-fluoro-phenylamino)-7-methoxy-quinazolin-6-yloxy]-4-methyl-1,4-diaza-spiro[5.5]undecan-5-one], IC50 2 nM. Against it:
- COc1cc2ncnc(Nc3cccc(Cl)c3F)c2cc1O[C@H]1CC[C@]2(CC1)NCCNC2=O [1(2), syn-9-[4-(3-chloro-2-fluoro-phenylamino)-7-methoxy-quinazolin-6-yloxy]-1,4-diaza-spiro[5.5]undecan-5-one] — the same, 2 nM
- COc1cc2ncnc(Nc3cccc(Cl)c3F)c2cc1O[C@H]1CC[C@]2(CC1)C(=O)N(C)CCN2C [2(1), anti-9-[4-(3-chloro-2-fluoro-phenylamino)-7-methoxy-quinazolin-6-yloxy]-1,4-dimethyl-1,4-diaza-spiro[5.5]undecan-5-one] — the same, 2 nM
- COc1cc2ncnc(Nc3cccc(Cl)c3F)c2cc1O[C@H]1CC[C@@]2(CC1)NCCNC2=O [Example 1, anti-9-[4-(3-chloro-2-fluoro-phenylamino)-7-methoxy-quinazolin-6-yloxy]-1,4-diaza-spiro[5.5]undecan-5-one] — 2-fold higher, 4 nM
- COc1cc2ncnc(Nc3cccc(Cl)c3F)c2cc1O[C@H]1CC[C@]2(CC1)C(=O)NCCN2C [Example 2, anti-9-[4-(3-chloro-2-fluoro-phenylamino)-7-methoxy-quinazolin-6-yloxy]-1-methyl-1,4-diaza-spiro[5.5]undecan-5-one] — 2-fold lower, 1 nM
